According to patent US11905278B1, “6-(6-bromo-2-oxo-2H-chromen-3-yl)-4-(2-chlorophenyl)-2-alkoxynicotinonitrile as an antimicrobial compound” (KING FAISAL UNIVERSITY, priority 2023, dated 2024):

What was measured:
Type in all cases: cell-based
[1] = test system: Pseudomonas aeruginosa; assay: Agar plate disc-diffusion, antibacterial activity by inhibition zone
Protocol: (§1) The agar plate disc-diffusion method was applied. Sterilized filter papers (6 mm in diameter) were wetted with 10 μL of a solution of compounds 6-(6-bromo-2-oxo-2H-chromen-3-yl)-4-(2-chlorophenyl)-2-ethoxynicotinonitrile 1 or 6-(6-bromo-2-oxo-2H-chromen-3-yl)-4-(2-chlorophenyl)-2-methoxynicotinonitrile 2 to be tested, containing […], and the discs were allowed to air dry. The discs were then placed onto the surface of agar plates (nutrient agar for bacteria and Sabouraud's dextrose agar for fungi) seeded with the test organism. Each plate contained 15 mL of the agar medium, previously seeded with 0.2 mL of the broth culture of each organism pregrown for 18 hours. The plates were incubated at 37° C. for 48 hours, and 72 hours for fungi. The inhibition zones were measured in mm. Discs impregnated with DMSO were used as a control, and its inhibition zone was subtracted from the tested compound actual inhibition zone.
(§2) The results of the antimicrobial testing can be observed in Tables 1 and 2, below, using ciprofloxacin as a reference.

[2] = test system: Bacillus cereus; assay: as above
Protocol: as §1, §2

[3] = test system: Escherichia coli; assay: as above
Protocol: as §1, §2

[4] = test system: Staphylococcus aureus; assay: as above
Protocol: as §1, §2

[5] = test system: Chrysosporium keratinophilum; assay: Agar plate disc-diffusion, antifungal activity by inhibition zone
Protocol: as §1, §2

[6] = test system: Aspergillus flavus; assay: as above
Protocol: as §1, §2

[7] = test system: different microbes; assay: Antimicrobial testing, overall conclusion; conditions: summary of Tables 1 and 2
Protocol: as §1
Their antibacterial activity was screened against gram positive bacteria namely Bacillus cereus and Staphylococcus aureus and gram-negative bacterial strains namely Pseudomonas aeruginosa and Escherichia coli, while their antifungal activity was screened against Aspergillus flavus and Chrysosporium keratinophilum.

[8] = A = concentration of comp. = 10,000 μL
[9] = B = concentration of comp. = 30,000 μL
[10] = C = concentration of comp. = 50,000 μL

SMILES	inhibition zone [1, 8] [mm]	inhibition zone [1, 9] [mm]	inhibition zone [1, 10] [mm]	inhibition zone [2, 8] [mm]	inhibition zone [2, 9] [mm]	inhibition zone [2, 10] [mm]	inhibition zone [3, 8] [mm]	inhibition zone [3, 9] [mm]	inhibition zone [3, 10] [mm]	inhibition zone [4, 8] [mm]	inhibition zone [4, 9] [mm]	inhibition zone [4, 10] [mm]	inhibition zone [5, 8] [mm]	inhibition zone [5, 9] [mm]	inhibition zone [5, 10] [mm]	inhibition zone [6, 8] [mm]	inhibition zone [6, 9] [mm]	inhibition zone [6, 10] [mm]	antimicrobial activities [7]
O=C(O)c1cn(C2CC2)c2cc(N3CCNCC3)c(F)cc2c1=O [Cip., ciprofloxacin, reference compound]	29	30	53	29	30	42	30	39	60	43	44	53	29	30	53	29	30	42	
CCOc1nc(-c2cc3cc(Br)ccc3oc2=O)cc(-c2ccccc2Cl)c1C#N [Compound 1, 6-(6-bromo-2-oxo-2H-chromen-3-yl)-4-(2-chlorophenyl)-2-ethoxynicotinonitrile]	26	30	40	26	29	39	27	38	49	17	20	36	26	27	38	19	21	29	high antimicrobial activities
COc1nc(-c2cc3cc(Br)ccc3oc2=O)cc(-c2ccccc2Cl)c1C#N [Compound 2, 6-(6-bromo-2-oxo-2H-chromen-3-yl)-4-(2-chlorophenyl)-2-methoxynicotinonitrile]	26	33	39	25	30	39	27	35	46	16	24	32	22	28	41	25	28	39	high antimicrobial activities
